Where only a bound is given, the exact number is not on record here.

The test system of one assay is mouse leukemia cell P388. Description: Proliferation inhibition activity against mouse leukemia cell (Thiazoyl Blue assay). The format is cell-based. The following applies: P388 cells, 24 hours culture with test compound, absorbance at 550 nm, read-out: 50% inhibitory concentration (IC₅₀). Here is the method:
(2) Proliferation inhibition activity against mouse leukemia cell
100 µl portions of a cell culturing medium (10% fetal bovine serum-containing-RPMI-1640 medium) containing 3x10³ mouse leukemia cell (P388) were put in a 96-hole microplate, the cells were cultured under 5% CO₂ at 37°C for 24 hours, 10 µl each of test solutions containing test compounds respectively were added respectively, and the cells were further cultured under 5% CO₂ at 37°C for 24 hours. 10 µl portions of 0.5% Thiazoyl Blue were added to the culture broths, and incubation was carried out under 5% CO₂ at 37°C for 2 hours to carry out enzymatic reaction. 20% sodium dodecyl sulfate (SDS) was added to discontinue the reaction, incubation was further carried out at 37°C for 4 hours to dissolve the formed dye, and absorbance at 550 nm was measured and compared with the control group.

The subject of a further assay is mouse tumor (P388). Description: Therapeutic effect against mouse tumor (P388). The format is in vivo. The conditions noted are these: P388, 10⁶ cancer cells inoculated i.p. The source says: (1) Therapeutic effect against mouse tumor (P388)
Where [1] appears, read: dose 1 mg/kg/injection i.p. once a day from 1st to 10th day.
[2] abbreviates: dose 3 mg/kg/injection i.p. once a day from 1st to 10th day.
Where [3] appears, read: dose 10 mg/kg/injection i.p. once a day from 1st to 10th day.
[4] abbreviates: dose 30 mg/kg/injection i.p. once a day from 1st to 10th day.
[5] abbreviates: dose 100 mg/kg/injection i.p. once a day from 1st to 10th day.

Turning to `O=C1c2c(c3c4cccc(O)c4n([C@@H]4O[C@H](CO)[C@@H](O)[C@H](O)[C@H]4O)c3c3[nH]c4c(O)cccc4c23)C(=O)N1N(Cc1ccccc1)Cc1ccccc1` [Example 29], the IC50 in the assay with mouse leukemia cell P388 was 0.005 µM.

Consider `O=C1c2c(c3c4cccc(O)c4n([C@@H]4O[C@H](CO)[C@@H](O)[C@H](O)[C@H]4O)c3c3[nH]c4c(O)cccc4c23)C(=O)N1N1CCCC1` [Example 37], for which the IC50 in the assay with mouse leukemia cell P388 came to 0.095 µM. For `O=C1c2c(c3c4cccc(O)c4n([C@@H]4O[C@H](CO)[C@@H](O)[C@H](O)[C@H]4O)c3c3[nH]c4c(O)cccc4c23)C(=O)N1NC1=NCCN1` [Example 25], the IC50 with mouse leukemia cell P388 is 0.048 µM.

As for `NC(=O)C(=O)NN1C(=O)c2c(c3c4cccc(O)c4n([C@@H]4O[C@H](CO)[C@@H](O)[C@H](O)[C@H]4O)c3c3[nH]c4c(O)cccc4c23)C1=O` [Example 17], the IC50 in the assay with mouse leukemia cell P388 turned out to be 0.044 µM. The same measure, in the same setting: the value for `CCC(=O)NN1C(=O)c2c(c3c4cccc(O)c4n([C@@H]4O[C@H](CO)[C@@H](O)[C@H](O)[C@H]4O)c3c3[nH]c4c(O)cccc4c23)C1=O` [Example 12] was 0.042 µM.

Regarding `O=C1c2c(c3c4cccc(O)c4n([C@@H]4O[C@H](CO)[C@@H](O)[C@H](O)[C@H]4O)c3c3[nH]c4c(O)cccc4c23)C(=O)N1NC(=O)C(F)(F)F` [Example 13], the IC50 with mouse leukemia cell P388 was determined as 0.22 µM. Still for that read-out and setting: next, `O=C1c2c(c3c4cccc(O)c4n([C@@H]4O[C@H](CO)[C@@H](O)[C@H](O)[C@H]4O)c3c3[nH]c4c(O)cccc4c23)C(=O)N1NCc1cccc(O)c1` [Example 23]: less than 0.025 µM; `NNC(=O)NN1C(=O)c2c(c3c4cccc(O)c4n([C@@H]4O[C@H](CO)[C@@H](O)[C@H](O)[C@H]4O)c3c3[nH]c4c(O)cccc4c23)C1=O` [Example 22]: 0.11 µM. The same measure, in the same setting: the value for `C=CCNN1C(=O)c2c(c3c4cccc(O)c4n([C@@H]4O[C@H](CO)[C@@H](O)[C@H](O)[C@H]4O)c3c3[nH]c4c(O)cccc4c23)C1=O` [Example 28] was less than 0.029 µM; that for `NC(=O)CNN1C(=O)c2c(c3c4cccc(O)c4n([C@@H]4O[C@H](CO)[C@@H](O)[C@H](O)[C@H]4O)c3c3[nH]c4c(O)cccc4c23)C1=O` [Example 14] was less than 0.027 µM; that for `CNN1C(=O)c2c(c3c4cccc(O)c4n([C@@H]4O[C@H](CO)[C@@H](O)[C@H](O)[C@H]4O)c3c3[nH]c4c(O)cccc4c23)C1=O` [Example 7] was 0.091 µM. In the case of `CO[C@H]1[C@H](O)[C@@H](O)[C@H](n2c3c(Cl)cccc3c3c4c(c5c6cccc(Cl)c6[nH]c5c32)C(=O)N(N)C4=O)O[C@@H]1CO` [Example 4, 6-N-aminorebeccamycin], in the assay on mouse leukemia cell P388, the IC50 amounted to 0.096 µM. Regarding `O=C1c2c(c3c4cccc(O)c4n([C@@H]4O[C@H](CO)[C@@H](O)[C@H](O)[C@H]4O)c3c3[nH]c4c(O)cccc4c23)C(=O)N1Nc1ccccn1` [Example 15], the IC50 in the assay on mouse leukemia cell P388 is 0.31 µM. The same measure, in the same setting: next, `CC(=O)NN1C(=O)c2c(c3c4cccc(O)c4n([C@@H]4O[C@H](CO)[C@@H](O)[C@H](O)[C@H]4O)c3c3[nH]c4c(O)cccc4c23)C1=O` [Example 6]: 0.059 µM. Still for that read-out and setting: next, `CC1(C)OC[C@@H]([C@@H](O)C(=O)NN2C(=O)c3c(c4c5cccc(O)c5n([C@@H]5O[C@H](CO)[C@@H](O)[C@H](O)[C@H]5O)c4c4[nH]c5c(O)cccc5c34)C2=O)O1` [Example 31]: 0.011 µM. Turning to `O=C(O)CCC=NN1C(=O)c2c(c3c4cccc(O)c4n([C@@H]4O[C@H](CO)[C@@H](O)[C@H](O)[C@H]4O)c3c3[nH]c4c(O)cccc4c23)C1=O` [Example 3], the IC50 in the assay with mouse leukemia cell P388 was 0.065 µM. For `NC(=S)NN1C(=O)c2c(c3c4cccc(O)c4n([C@@H]4O[C@H](CO)[C@@H](O)[C@H](O)[C@H]4O)c3c3[nH]c4c(O)cccc4c23)C1=O` [Example 10], the IC50 in the assay on mouse leukemia cell P388 turned out to be 0.46 µM.

Regarding `O=C(NN1C(=O)c2c(c3c4cccc(O)c4n([C@@H]4O[C@H](CO)[C@@H](O)[C@H](O)[C@H]4O)c3c3[nH]c4c(O)cccc4c23)C1=O)c1ccccc1` [Example 34], the IC50 in the assay on mouse leukemia cell P388 is 0.019 µM. On to `O=C1c2c(c3c4cccc(O)c4n([C@@H]4O[C@H](CO)[C@@H](O)[C@H](O)[C@H]4O)c3c3[nH]c4c(O)cccc4c23)C(=O)N1NCCO` [Example 36], for which the IC50 in the assay on mouse leukemia cell P388 was found to be 0.002 µM. Take `CS(=O)(=O)NN1C(=O)c2c(c3c4cccc(O)c4n([C@@H]4O[C@H](CO)[C@@H](O)[C@H](O)[C@H]4O)c3c3[nH]c4c(O)cccc4c23)C1=O` [Example 11]: the IC50 in the assay on mouse leukemia cell P388 was less than 0.026 µM. For the molecule `O=C(O)C=NN1C(=O)c2c(c3c4cccc(O)c4n([C@@H]4O[C@H](CO)[C@@H](O)[C@H](O)[C@H]4O)c3c3[nH]c4c(O)cccc4c23)C1=O` [Example 2], the “MST (mean survival number of days)” value in the assay with mouse tumor (P388) (setting [1]) is 15.8 ± 0.84 days; with mouse tumor (P388) (setting [2]), 17.8 ± 1.92 days; in the assay on mouse tumor (P388) (setting [3]), more than 26.4 ± 18.82 days; in the assay with mouse tumor (P388) (setting [4]) it was more than 42.2 ± 24.38 days; in the assay with mouse tumor (P388) (setting [5]), more than 47.2 ± 18.90 days. The “T/C (%) (MST of treatment group/MST of control x 100)” value is recorded as 128% in the assay with mouse tumor (P388) (setting [1]); 145% in the assay with mouse tumor (P388) (setting [2]); more than 245% in the assay with mouse tumor (P388) (setting [3]); more than 343% in the assay with mouse tumor (P388) (setting [4]); more than 384% in the assay on mouse tumor (P388) (setting [5]). Further, the IC50 in the assay on mouse leukemia cell P388 came out at 0.29 µM. As for `N#CCCNN1C(=O)c2c(c3c4cccc(O)c4n([C@@H]4O[C@H](CO)[C@@H](O)[C@H](O)[C@H]4O)c3c3[nH]c4c(O)cccc4c23)C1=O` [Example 24], the IC50 with mouse leukemia cell P388 came out at 0.001 µM.

Regarding `O=CNN1C(=O)c2c(c3c4cccc(O)c4n([C@@H]4O[C@H](CO)[C@@H](O)[C@H](O)[C@H]4O)c3c3[nH]c4c(O)cccc4c23)C1=O` [Example 5], the “MST (mean survival number of days)” value is 16.8 ± 0.84 days with mouse tumor (P388) (setting [1]); 17.8 ± 1.92 days with mouse tumor (P388) (setting [2]); more than 26.2 ± 10.18 days with mouse tumor (P388) (setting [3]); more than 23.4 ± 9.74 days in the assay on mouse tumor (P388) (setting [4]); more than 36.4 ± 8.05 days with mouse tumor (P388) (setting [5]). The “T/C (%) (MST of treatment group/MST of control x 100)” value in the assay with mouse tumor (P388) (setting [1]) is 137%; with mouse tumor (P388) (setting [2]), 145%; in the assay with mouse tumor (P388) (setting [3]) it was more than 213%; in the assay on mouse tumor (P388) (setting [4]) it was more than 190%; in the assay with mouse tumor (P388) (setting [5]) it was more than 296%. Further, the IC50 in the assay on mouse leukemia cell P388 came to 0.28 µM.

`NN1C(=O)c2c(c3c4cccc(O)c4n([C@@H]4O[C@H](CO)[C@@H](O)[C@H](O)[C@H]4O)c3c3[nH]c4c(O)cccc4c23)C1=O` [Example 1]: in the assay on mouse leukemia cell P388, the IC50 was less than 0.03 µM. Same read-out and setting: the value for `COC(=O)NN1C(=O)c2c(c3c4cccc(O)c4n([C@@H]4O[C@H](CO)[C@@H](O)[C@H](O)[C@H]4O)c3c3[nH]c4c(O)cccc4c23)C1=O` [Example 30] was 0.003 µM; that for `O=C(Nc1ccccc1)NN1C(=O)c2c(c3c4cccc(O)c4n([C@@H]4O[C@H](CO)[C@@H](O)[C@H](O)[C@H]4O)c3c3[nH]c4c(O)cccc4c23)C1=O` [Example 33] was 0.11 µM. Still for that read-out and setting: next, `NC(=O)NN1C(=O)c2c(c3c4cccc(O)c4n([C@@H]4O[C@H](CO)[C@@H](O)[C@H](O)[C@H]4O)c3c3[nH]c4c(O)cccc4c23)C1=O` [Example 9]: 0.028 µM. On the same count and under the same terms, the value for `CC(C)(C)OC(=O)NN1C(=O)c2c(c3c4cccc(O)c4n([C@@H]4O[C@H](CO)[C@@H](O)[C@H](O)[C@H]4O)c3c3[nH]c4c(O)cccc4c23)C1=O` [Example 27] was 0.027 µM; that for `O=C(O)CNN1C(=O)c2c(c3c4cccc(O)c4n([C@@H]4O[C@H](CO)[C@@H](O)[C@H](O)[C@H]4O)c3c3[nH]c4c(O)cccc4c23)C1=O` [Example 8] was 0.3 µM; that for `O=C(NN1C(=O)c2c(c3c4cccc(O)c4n([C@@H]4O[C@H](CO)[C@@H](O)[C@H](O)[C@H]4O)c3c3[nH]c4c(O)cccc4c23)C1=O)c1ccccn1` [Example 35] was 0.17 µM.

For the origin of these results see patent EP0545195B1, “Indolopyrrolocarbazole derivatives” (BANYU PHARMACEUTICAL CO., LTD., priority 1991, dated 1993).
